From PubChem BioAssay AID1963435 (Molecular Pharmacology Branch, DTP, NCI, 2024)

Test system: PANC-1 complex spheroid growth, percent test/control
Experiment: Anticancer human tumor PANC-1 cell line growth inhibition [Asc];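 further: spheroids exposed to agents for 7 days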;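 on viability, T/C: percent viability relative to DMSO vehicle wells taken as 100%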
Settings: for IC50: curve of first compound; for viability, T/C: stronger effect = lower value
How it was run: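 Concentration series start at each agent's clinical Cmax, or at 10 microM when none is established, and drop in half-log steps; agents are applied alone or together to complex spheroids built with HUVEC and hMSC.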

[1] = second compound 0.00949 µM, first compound 0.0316 µM
[2] = second compound 0.00949 µM, first compound 0.1 µM
[3] = second compound 0.00949 µM, first compound 0.316 µM
[4] = second compound 0.00949 µM, first compound 1 µM
[5] = second compound 0.00949 µM, first compound 3.16 µM
[6] = second compound 0.00949 µM, first compound 10 µM
[7] = second compound 0.03 µM, first compound 0.0316 µM
[8] = second compound 0.03 µM, first compound 0.1 µM
[9] = second compound 0.03 µM, first compound 0.316 µM
[10] = second compound 0.03 µM, first compound 1 µM
[11] = second compound 0.03 µM, first compound 3.16 µM
[12] = second compound 0.03 µM, first compound 10 µM
[13] = second compound 0.0949 µM, first compound 0.0316 µM
[14] = second compound 0.0949 µM, first compound 0.1 µM
[15] = second compound 0.0949 µM, first compound 0.316 µM
[16] = second compound 0.0949 µM, first compound 1 µM
[17] = second compound 0.0949 µM, first compound 3.16 µM
[18] = second compound 0.0949 µM, first compound 10 µM
[19] = second compound 0.3 µM, first compound 0.0316 µM
[20] = second compound 0.3 µM, first compound 0.1 µM
[21] = second compound 0.3 µM, first compound 0.316 µM
[22] = second compound 0.3 µM, first compound 1 µM
[23] = second compound 0.3 µM, first compound 3.16 µM
[24] = second compound 0.3 µM, first compound 10 µM
[25] = second compound 0.949 µM, first compound 0.0316 µM
[26] = second compound 0.949 µM, first compound 0.1 µM
[27] = second compound 0.949 µM, first compound 0.316 µM
[28] = second compound 0.949 µM, first compound 1 µM
[29] = second compound 0.949 µM, first compound 3.16 µM
[30] = second compound 0.949 µM, first compound 10 µM
[31] = second compound 3 µM, first compound 0.0316 µM
[32] = second compound 3 µM, first compound 0.1 µM
[33] = second compound 3 µM, first compound 0.316 µM
[34] = second compound 3 µM, first compound 1 µM
[35] = second compound 3 µM, first compound 3.16 µM
[36] = second compound 3 µM, first compound 10 µM

In the case of C#Cc1c(F)ccc2cc(O)cc(-c3ncc4c(N5CC6CCC(C5)N6)nc(OCC56CCCN5CC(F)C6)nc4c3F)c12 (stereo not drawn) + CCN1C(C(=O)NC23CCC(C(=O)O)(CC2)CC3)C(c2cccc(Cl)c2F)C2(C(=O)Nc3cc(Cl)ccc32)C12CCCCC2, the IC50 (second compound 0.00949 µM) is reported as over 10 µM, the IC50 (second compound 0.03 µM) is reported as over 10 µM and the IC50 (second compound 0.0949 µM) is reported as over 10 µM. The IC50 (second compound 0.3 µM) was over 10 µM, the IC50 (second compound 0.949 µM) was over 10 µM and the IC50 (second compound 3 µM) was over 10 µM. It also gave a viability, T/C [1] of 99.1%, a viability, T/C [2] of 79.1% and a viability, T/C [3] of 89.9%. For the same compound, the viability, T/C [4] was 90.8%, the viability, T/C [5] was 96.3% and the viability, T/C [6] was 84%. The viability, T/C [7] was 93.3%, the viability, T/C [8] was 90.2% and the viability, T/C [9] was 83.4%. The viability, T/C [10] was 92.6%, the viability, T/C [11] was 94.3% and the viability, T/C [12] was 82.3%. For the same compound, the viability, T/C [13] was 94%, the viability, T/C [14] was 84.3% and the viability, T/C [15] was 85%. The viability, T/C [16] was 82.2%, the viability, T/C [17] was 90.6% and the viability, T/C [18] was 88.8%. For the same compound, the viability, T/C [19] was 97%, the viability, T/C [20] was 84.3% and the viability, T/C [21] was 92.6%. The viability, T/C [22] was 93.2%, the viability, T/C [23] was 98.7% and the viability, T/C [24] was 90.9%. It also gave a viability, T/C [25] of 98.4%, a viability, T/C [26] of 85.5% and a viability, T/C [27] of 92.8%. It also gave a viability, T/C [28] of 90.5%, a viability, T/C [29] of 93.7% and a viability, T/C [30] of 82.8%. The viability, T/C [31] was 104%, the viability, T/C [32] was 91.7% and the viability, T/C [33] was 89.2%. The viability, T/C [34] was 87.7%, the viability, T/C [35] was 95.1% and the viability, T/C [36] was 82.6%.

For C=C(F)C(=O)N1CCN(c2nc(OCC3CCCN3C)nc3c2CCN(c2cccc4cccc(Cl)c24)C3)CC1CC#N (stereo not drawn) + CCN1C(C(=O)NC23CCC(C(=O)O)(CC2)CC3)C(c2cccc(Cl)c2F)C2(C(=O)Nc3cc(Cl)ccc32)C12CCCCC2, the IC50 (second compound 0.00949 µM) was 7.22 µM, the IC50 (second compound 0.03 µM) was 6.88 µM and the IC50 (second compound 0.0949 µM) was 6.94 µM. For the same compound, the IC50 (second compound 0.3 µM) was 7.25 µM, the IC50 (second compound 0.949 µM) was 7.02 µM and the IC50 (second compound 3 µM) was 7.78 µM. The viability, T/C [1] was 99%, the viability, T/C [2] was 89.5% and the viability, T/C [3] was 88.4%. It also gave a viability, T/C [4] of 98.5%, a viability, T/C [5] of 105% and a viability, T/C [6] of 31.7%. It also gave a viability, T/C [7] of 103%, a viability, T/C [8] of 96.7% and a viability, T/C [9] of 97%. The viability, T/C [10] was 97.7%, the viability, T/C [11] was 88% and the viability, T/C [12] was 31.6%. The viability, T/C [13] was 105%, the viability, T/C [14] was 102% and the viability, T/C [15] was 108%. The viability, T/C [16] was 109%, the viability, T/C [17] was 106% and the viability, T/C [18] was 24.1%. It also gave a viability, T/C [19] of 99.5%, a viability, T/C [20] of 93.1% and a viability, T/C [21] of 103%. It also gave a viability, T/C [22] of 108%, a viability, T/C [23] of 100% and a viability, T/C [24] of 30.5%. It also gave a viability, T/C [25] of 117%, a viability, T/C [26] of 104% and a viability, T/C [27] of 114%. For the same compound, the viability, T/C [28] was 109%, the viability, T/C [29] was 97.1% and the viability, T/C [30] was 28.9%. For the same compound, the viability, T/C [31] was 112%, the viability, T/C [32] was 108% and the viability, T/C [33] was 115%. It also gave a viability, T/C [34] of 126%, a viability, T/C [35] of 96.7% and a viability, T/C [36] of 37%.

Compound C=CC(=O)N1CCN(c2nc(=O)n(-c3c(C)ccnc3C(C)C)c3nc(-c4c(O)cccc4F)c(F)cc23)C(C)C1 (stereo not drawn) + CCN1C(C(=O)NC23CCC(C(=O)O)(CC2)CC3)C(c2cccc(Cl)c2F)C2(C(=O)Nc3cc(Cl)ccc32)C12CCCCC2 has an IC50 (second compound 0.00949 µM) of over 10 µM, an IC50 (second compound 0.03 µM) of over 10 µM and an IC50 (second compound 0.0949 µM) of over 10 µM. The IC50 (second compound 0.3 µM) was over 10 µM, the IC50 (second compound 0.949 µM) was over 10 µM and the IC50 (second compound 3 µM) was over 10 µM. The viability, T/C [1] was 98.1%, the viability, T/C [2] was 96.8% and the viability, T/C [3] was 86%. For the same compound, the viability, T/C [4] was 98.8%, the viability, T/C [5] was 90.4% and the viability, T/C [6] was 96%. The viability, T/C [7] was 101%, the viability, T/C [8] was 92.5% and the viability, T/C [9] was 100%. For the same compound, the viability, T/C [10] was 103%, the viability, T/C [11] was 97.8% and the viability, T/C [12] was 77.5%. It also gave a viability, T/C [13] of 111%, a viability, T/C [14] of 101% and a viability, T/C [15] of 97.5%. It also gave a viability, T/C [16] of 94%, a viability, T/C [17] of 95.6% and a viability, T/C [18] of 91.2%. The viability, T/C [19] was 109%, the viability, T/C [20] was 95.3% and the viability, T/C [21] was 106%. It also gave a viability, T/C [22] of 110%, a viability, T/C [23] of 93.6% and a viability, T/C [24] of 93.2%. It also gave a viability, T/C [25] of 116%, a viability, T/C [26] of 107% and a viability, T/C [27] of 96.4%. The viability, T/C [28] was 103%, the viability, T/C [29] was 94.7% and the viability, T/C [30] was 93.1%. It also gave a viability, T/C [31] of 120%, a viability, T/C [32] of 115% and a viability, T/C [33] of 114%. It also gave a viability, T/C [34] of 121%, a viability, T/C [35] of 109% and a viability, T/C [36] of 102%.

CNC(C)C(=O)NC1CN(S(=O)(=O)c2cccc(S(=O)(=O)N3CCC4CCC(C(=O)NC(c5ccccc5)c5ccccc5)N4C(=O)C(NC(=O)C(C)NC)C3)c2)CCC2CCC(C(=O)NC(c3ccccc3)c3ccccc3)N2C1=O (stereo not drawn) + CCN1C(C(=O)NC23CCC(C(=O)O)(CC2)CC3)C(c2cccc(Cl)c2F)C2(C(=O)Nc3cc(Cl)ccc32)C12CCCCC2 gave an IC50 (second compound 0.00949 µM) of over 1 µM, an IC50 (second compound 0.03 µM) of over 1 µM and an IC50 (second compound 0.0949 µM) of over 1 µM. For the same compound, the IC50 (second compound 0.3 µM) was over 1 µM, the IC50 (second compound 0.949 µM) was over 1 µM and the IC50 (second compound 3 µM) was over 1 µM. For the same compound, the viability, T/C (second compound 0.00949 µM, first compound 0.00316 µM) was 104%, the viability, T/C (second compound 0.00949 µM, first compound 0.01 µM) was 96.6% and the viability, T/C [1] was 103%. For the same compound, the viability, T/C [2] was 89.4%, the viability, T/C [3] was 97% and the viability, T/C [4] was 86.5%. The viability, T/C (second compound 0.03 µM, first compound 0.00316 µM) was 103%, the viability, T/C (second compound 0.03 µM, first compound 0.01 µM) was 93.9% and the viability, T/C [7] was 90.9%. The viability, T/C [8] was 93.8%, the viability, T/C [9] was 97.2% and the viability, T/C [10] was 85.4%. For the same compound, the viability, T/C (second compound 0.0949 µM, first compound 0.00316 µM) was 90.3%, the viability, T/C (second compound 0.0949 µM, first compound 0.01 µM) was 96.9% and the viability, T/C [13] was 89.4%. It also gave a viability, T/C [14] of 91.2%, a viability, T/C [15] of 92.2% and a viability, T/C [16] of 86.8%. The viability, T/C (second compound 0.3 µM, first compound 0.00316 µM) was 114%, the viability, T/C (second compound 0.3 µM, first compound 0.01 µM) was 94.1% and the viability, T/C [19] was 90.7%. For the same compound, the viability, T/C [20] was 101%, the viability, T/C [21] was 91.3% and the viability, T/C [22] was 90.6%. The viability, T/C (second compound 0.949 µM, first compound 0.00316 µM) was 106%, the viability, T/C (second compound 0.949 µM, first compound 0.01 µM) was 100% and the viability, T/C [25] was 106%. The viability, T/C [26] was 97.8%, the viability, T/C [27] was 100% and the viability, T/C [28] was 93.2%. It also gave a viability, T/C (second compound 3 µM, first compound 0.00316 µM) of 113%, a viability, T/C (second compound 3 µM, first compound 0.01 µM) of 111% and a viability, T/C [31] of 108%. It also gave a viability, T/C [32] of 103%, a viability, T/C [33] of 109% and a viability, T/C [34] of 89.1%.
